Measured values published in PubChem BioAssay AID1259407 (Chemical Carcinogenesis Research Information System (CCRIS), 2018).
Calls of active or inactive are those of the source. No rule for the calls is given here.

System: CCRIS mutagenicity, Ames/micronucleus/aberration tests
Assay: CCRIS mutagenicity studies
[1] = Test System: AMES SALMONELLA TYPHIMURIUM, Strain/Indicator: TA98, Metabolic Activation: HAMSTER, LIVER, S-9, AROCLOR 1254 (10%), Method: PREINCUBATION
[2] = Test System: AMES SALMONELLA TYPHIMURIUM, Strain/Indicator: TA98, Metabolic Activation: NONE, Method: PREINCUBATION
[3] = Test System: AMES SALMONELLA TYPHIMURIUM, Strain/Indicator: TA98, Metabolic Activation: RAT, LIVER, S-9, AROCLOR 1254 (10%), Method: PREINCUBATION
[4] = Test System: AMES SALMONELLA TYPHIMURIUM, Strain/Indicator: TA100, Metabolic Activation: HAMSTER, LIVER, S-9, AROCLOR 1254 (10%), Method: PREINCUBATION
[5] = Test System: AMES SALMONELLA TYPHIMURIUM, Strain/Indicator: TA100, Metabolic Activation: NONE, Method: PREINCUBATION
[6] = Test System: AMES SALMONELLA TYPHIMURIUM, Strain/Indicator: TA100, Metabolic Activation: RAT, LIVER, S-9, AROCLOR 1254 (10%), Method: PREINCUBATION
[7] = Test System: AMES SALMONELLA TYPHIMURIUM, Strain/Indicator: TA1535, Metabolic Activation: NONE, Method: PREINCUBATION
[8] = Test System: AMES SALMONELLA TYPHIMURIUM, Strain/Indicator: TA1537, Metabolic Activation: HAMSTER, LIVER, S-9, AROCLOR 1254 (10%), Method: PREINCUBATION
[9] = Test System: AMES SALMONELLA TYPHIMURIUM, Strain/Indicator: TA1537, Metabolic Activation: NONE, Method: PREINCUBATION
[10] = Test System: AMES SALMONELLA TYPHIMURIUM, Strain/Indicator: TA1537, Metabolic Activation: RAT, LIVER, S-9, AROCLOR 1254 (10%), Method: PREINCUBATION
[11] = Test System: AMES SALMONELLA TYPHIMURIUM, Strain/Indicator: TA98, Metabolic Activation: NONE, Method: STANDARD PLATE
[12] = Test System: AMES SALMONELLA TYPHIMURIUM, Strain/Indicator: TA100, Metabolic Activation: NONE, Method: STANDARD PLATE
[13] = Test System: AMES SALMONELLA TYPHIMURIUM, Strain/Indicator: TA1537, Metabolic Activation: NONE, Method: STANDARD PLATE

Cc1cccc(C)c1N
mutagenic call (End Point: IN VITRO CHROMOSOMAL ABERRATIONS, Test System: CHINESE HAMSTER OVARY CELLS, Metabolic Activation: NONE): active; positive; precipitation occurred at all doses
mutagenic call (End Point: IN VITRO CHROMOSOMAL ABERRATIONS, Test System: CHINESE HAMSTER OVARY CELLS, Metabolic Activation: RAT, LIVER, S-9, AROCLOR 1254): active; positive; precipitation occurred at 1200 and 1300 ug/ml
mutagenic call (Test System: AMES SALMONELLA TYPHIMURIUM, Strain/Indicator: TA97, Metabolic Activation: HAMSTER, LIVER, S-9, AROCLOR 1254 (30%), Method: PREINCUBATION): inactive; negative
mutagenic call (Test System: AMES SALMONELLA TYPHIMURIUM, Strain/Indicator: TA97, Metabolic Activation: NONE, Method: PREINCUBATION): inactive; negative
mutagenic call (Test System: AMES SALMONELLA TYPHIMURIUM, Strain/Indicator: TA97, Metabolic Activation: RAT, LIVER, S-9, AROCLOR 1254 (30%), Method: PREINCUBATION): inactive; negative
mutagenic call [1]: inactive; negative
mutagenic call (Test System: AMES SALMONELLA TYPHIMURIUM, Strain/Indicator: TA98, Metabolic Activation: HAMSTER, LIVER, S-9, AROCLOR 1254 (30%), Method: PREINCUBATION): inactive; negative
mutagenic call (Test System: AMES SALMONELLA TYPHIMURIUM, Strain/Indicator: TA98, Metabolic Activation: HAMSTER, LIVER, S-9, AROCLOR 1254, Method: PREINCUBATION): inactive; negative
mutagenic call [2]: inactive; negative
mutagenic call [3]: inactive; negative
mutagenic call (Test System: AMES SALMONELLA TYPHIMURIUM, Strain/Indicator: TA98, Metabolic Activation: RAT, LIVER, S-9, AROCLOR 1254 (30%), Method: PREINCUBATION): inactive; negative
mutagenic call (Test System: AMES SALMONELLA TYPHIMURIUM, Strain/Indicator: TA98, Metabolic Activation: RAT, LIVER, S-9, AROCLOR 1254, Method: PREINCUBATION): inactive; negative
mutagenic call (Test System: AMES SALMONELLA TYPHIMURIUM, Strain/Indicator: TA100, Metabolic Activation: HAMSTER, LIVER, S-9, AROCLOR 1254 (5%), Method: PREINCUBATION): inactive; negative
mutagenic call [4]: inactive; negative
mutagenic call (Test System: AMES SALMONELLA TYPHIMURIUM, Strain/Indicator: TA100, Metabolic Activation: HAMSTER, LIVER, S-9, AROCLOR 1254, Method: PREINCUBATION): inactive; negative
mutagenic call [5]: inactive; negative
mutagenic call (Test System: AMES SALMONELLA TYPHIMURIUM, Strain/Indicator: TA100, Metabolic Activation: RAT, LIVER, S-9, AROCLOR 1254 (5 OR 30%), Method: PREINCUBATION): inactive; negative
mutagenic call [6]: inactive; negative
mutagenic call (Test System: AMES SALMONELLA TYPHIMURIUM, Strain/Indicator: TA100, Metabolic Activation: RAT, LIVER, S-9, AROCLOR 1254, Method: PREINCUBATION): inactive; negative
mutagenic call (Test System: AMES SALMONELLA TYPHIMURIUM, Strain/Indicator: TA1535, Metabolic Activation: HAMSTER, LIVER, S-9, AROCLOR 1254 (5%), Method: PREINCUBATION): inactive; negative
mutagenic call (Test System: AMES SALMONELLA TYPHIMURIUM, Strain/Indicator: TA1535, Metabolic Activation: HAMSTER, LIVER, S-9, AROCLOR 1254, Method: PREINCUBATION): inactive; negative
mutagenic call [7]: inactive; negative
mutagenic call (Test System: AMES SALMONELLA TYPHIMURIUM, Strain/Indicator: TA1535, Metabolic Activation: RAT, LIVER, S-9, AROCLOR 1254 (5%), Method: PREINCUBATION): inactive; negative
mutagenic call (Test System: AMES SALMONELLA TYPHIMURIUM, Strain/Indicator: TA1535, Metabolic Activation: RAT, LIVER, S-9, AROCLOR 1254 (10 OR 30%), Method: PREINCUBATION): inactive; negative
mutagenic call (Test System: AMES SALMONELLA TYPHIMURIUM, Strain/Indicator: TA1535, Metabolic Activation: RAT, LIVER, S-9, AROCLOR 1254, Method: PREINCUBATION): inactive; negative
mutagenic call [8]: inactive; negative
mutagenic call (Test System: AMES SALMONELLA TYPHIMURIUM, Strain/Indicator: TA1537, Metabolic Activation: HAMSTER, LIVER, S-9, AROCLOR 1254, Method: PREINCUBATION): inactive; negative
mutagenic call [9]: inactive; negative
mutagenic call [10]: inactive; negative
mutagenic call (Test System: AMES SALMONELLA TYPHIMURIUM, Strain/Indicator: TA1537, Metabolic Activation: RAT, LIVER, S-9, AROCLOR 1254, Method: PREINCUBATION): inactive; negative

NCCCN
mutagenic call [1]: inactive; negative
mutagenic call [2]: inactive; negative
mutagenic call [3]: inactive; negative
mutagenic call [4]: inactive; negative
mutagenic call [5]: inactive; negative
mutagenic call [6]: inactive; negative
mutagenic call (Test System: AMES SALMONELLA TYPHIMURIUM, Strain/Indicator: TA1535, Metabolic Activation: HAMSTER, LIVER, S-9, AROCLOR 1254 (10%), Method: PREINCUBATION): inactive; negative
mutagenic call [7]: inactive; negative
mutagenic call (Test System: AMES SALMONELLA TYPHIMURIUM, Strain/Indicator: TA1535, Metabolic Activation: RAT, LIVER, S-9, AROCLOR 1254 (10%), Method: PREINCUBATION): inactive; negative
mutagenic call [8]: inactive; negative
mutagenic call [9]: inactive; negative
mutagenic call [10]: inactive; negative

O=c1[nH]c(=O)n([C@H]2C[C@H](O)[C@@H](CO)O2)cc1CO
mutagenic call [11]: inactive; negative
mutagenic call (Test System: AMES SALMONELLA TYPHIMURIUM, Strain/Indicator: TA98, Metabolic Activation: RAT, LIVER, S-9, AROCLOR 1254, Method: STANDARD PLATE): inactive; negative
mutagenic call [12]: active; positive
mutagenic call (Test System: AMES SALMONELLA TYPHIMURIUM, Strain/Indicator: TA100, Metabolic Activation: RAT, LIVER, S-9, AROCLOR 1254, Method: STANDARD PLATE): active; positive
mutagenic call (Test System: AMES SALMONELLA TYPHIMURIUM, Strain/Indicator: TA102, Metabolic Activation: NONE, Method: STANDARD PLATE): active; positive
mutagenic call [13]: inactive; negative
mutagenic call (Test System: AMES SALMONELLA TYPHIMURIUM, Strain/Indicator: TA1537, Metabolic Activation: RAT, LIVER, S-9, AROCLOR 1254, Method: STANDARD PLATE): inactive; negative
mutagenic call (Test System: CHINESE HAMSTER V-79, Strain/Indicator: V-79/6-THIOGUANINE, Metabolic Activation: NONE): active; positive
mutagenic call (Test System: CHINESE HAMSTER V-79, Strain/Indicator: V-79/OUABAIN, Metabolic Activation: NONE): inactive; negative

O=C(CCl)Nc1snc2ccc(Cl)cc12
mutagenic call [11]: inactive; negative
mutagenic call (Test System: AMES SALMONELLA TYPHIMURIUM, Strain/Indicator: TA98, Metabolic Activation: S-9, Method: STANDARD PLATE): active; positive
mutagenic call [12]: inactive; negative
mutagenic call (Test System: AMES SALMONELLA TYPHIMURIUM, Strain/Indicator: TA100, Metabolic Activation: S-9, Method: STANDARD PLATE): active; positive
mutagenic call (Test System: AMES SALMONELLA TYPHIMURIUM, Strain/Indicator: TA1535, Metabolic Activation: NONE, Method: STANDARD PLATE): inactive; negative
mutagenic call (Test System: AMES SALMONELLA TYPHIMURIUM, Strain/Indicator: TA1535, Metabolic Activation: S-9, Method: STANDARD PLATE): inactive; negative
mutagenic call [13]: active; positive
mutagenic call (Test System: AMES SALMONELLA TYPHIMURIUM, Strain/Indicator: TA1537, Metabolic Activation: S-9, Method: STANDARD PLATE): active; positive

O=[N+]([O-])c1cc([N+](=O)[O-])c2cccc3c2c1-c1ccccc1-3
mutagenic call (Test System: AMES SALMONELLA TYPHIMURIUM, Strain/Indicator: TA98(1,8-DNP6), Metabolic Activation: NONE, Method: STANDARD PLATE): active; positive
mutagenic call (Test System: AMES SALMONELLA TYPHIMURIUM, Strain/Indicator: TA98(NR), Metabolic Activation: NONE, Method: STANDARD PLATE): active; positive
mutagenic call [11]: active; positive
